Measured values as given in BindingDB's records for doi:10.1016/S0960-894X(97)00408-3 (1997).

Biological target: 5-hydroxytryptamine receptor 4 (Rattus norvegicus, UniProt Q62758)
Test: Agonist activity against serotonin 5-HT4 receptor in rat tunica muscularis mucosae assay

Sequence of 5-hydroxytryptamine receptor 4 (Q62758 whole entry): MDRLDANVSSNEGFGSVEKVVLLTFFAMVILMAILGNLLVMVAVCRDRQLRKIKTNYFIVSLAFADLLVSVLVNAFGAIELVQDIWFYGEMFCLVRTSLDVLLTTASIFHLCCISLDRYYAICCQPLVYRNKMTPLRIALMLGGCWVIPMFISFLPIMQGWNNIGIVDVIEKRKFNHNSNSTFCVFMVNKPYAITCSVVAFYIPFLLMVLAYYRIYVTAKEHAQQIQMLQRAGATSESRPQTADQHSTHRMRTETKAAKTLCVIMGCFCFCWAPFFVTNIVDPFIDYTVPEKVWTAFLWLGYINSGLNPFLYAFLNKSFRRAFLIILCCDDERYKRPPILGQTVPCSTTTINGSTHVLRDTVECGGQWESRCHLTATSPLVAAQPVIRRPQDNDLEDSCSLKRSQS

EC50 [nM]	SMILES
660	COc1cc(N)c(Cl)cc1C(=O)NCC1C2CC3CC1CN3C2 (configuration not stated) [4-Amino-N-(3-aza-tricyclo[3.3.1.0*3,7*]non-9-ylmethyl)-5-chloro-2-methoxy-benzamide]
382	COc1cc(N)c(Cl)cc1C(=O)NC1C2CC3CC1CN3C2 (configuration not stated) [4-Amino-N-(3-aza-tricyclo[3.3.1.0*3,7*]non-9-yl)-5-chloro-2-methoxy-benzamide]
